Series [1] concerns Liver microsomes. The series is described as follows: Metabolic stability in rat liver microsomes assessed as compound remaining. The series is classed as ADME, Microsome. In general terms: Microsomes from liver hold many membrane-bound enzymes, among them those of drug oxidation.
The target in series [2] is T1, Mineralocorticoid receptor (Homo sapiens, UniProt P08235).
T1 sequence (P08235 whole entry): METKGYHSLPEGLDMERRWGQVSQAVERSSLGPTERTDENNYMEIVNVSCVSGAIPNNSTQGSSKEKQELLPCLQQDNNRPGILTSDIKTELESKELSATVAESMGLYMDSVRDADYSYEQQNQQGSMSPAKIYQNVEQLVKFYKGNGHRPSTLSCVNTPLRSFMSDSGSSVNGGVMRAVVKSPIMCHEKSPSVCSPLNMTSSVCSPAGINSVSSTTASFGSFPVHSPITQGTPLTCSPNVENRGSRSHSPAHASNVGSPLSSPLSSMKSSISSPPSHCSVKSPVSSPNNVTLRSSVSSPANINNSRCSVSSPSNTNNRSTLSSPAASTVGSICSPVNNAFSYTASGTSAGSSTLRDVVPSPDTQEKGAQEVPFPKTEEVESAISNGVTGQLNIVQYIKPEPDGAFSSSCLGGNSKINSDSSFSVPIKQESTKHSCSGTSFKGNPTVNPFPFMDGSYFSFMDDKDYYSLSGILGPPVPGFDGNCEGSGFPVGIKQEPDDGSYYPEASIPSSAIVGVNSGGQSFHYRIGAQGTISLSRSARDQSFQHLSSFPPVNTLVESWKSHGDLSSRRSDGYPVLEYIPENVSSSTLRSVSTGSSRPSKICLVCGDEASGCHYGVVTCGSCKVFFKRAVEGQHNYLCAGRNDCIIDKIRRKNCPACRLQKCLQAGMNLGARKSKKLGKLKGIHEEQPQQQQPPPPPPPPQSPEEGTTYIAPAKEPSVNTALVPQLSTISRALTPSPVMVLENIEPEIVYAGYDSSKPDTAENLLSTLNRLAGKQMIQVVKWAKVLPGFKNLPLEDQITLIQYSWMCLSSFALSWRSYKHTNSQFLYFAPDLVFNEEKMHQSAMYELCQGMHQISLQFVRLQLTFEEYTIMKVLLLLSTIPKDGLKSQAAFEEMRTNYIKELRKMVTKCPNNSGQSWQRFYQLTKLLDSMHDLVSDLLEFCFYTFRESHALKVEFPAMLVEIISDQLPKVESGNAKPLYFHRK
Description: Antagonist activity at mineralocorticoid receptor LBD expressed in human HUH7 cells coexpressing GAL4 by luciferase reporter gene assay

Another series concerns the target T2, Androgen receptor (Homo sapiens, UniProt P10275).
T2 sequence (P10275 whole entry): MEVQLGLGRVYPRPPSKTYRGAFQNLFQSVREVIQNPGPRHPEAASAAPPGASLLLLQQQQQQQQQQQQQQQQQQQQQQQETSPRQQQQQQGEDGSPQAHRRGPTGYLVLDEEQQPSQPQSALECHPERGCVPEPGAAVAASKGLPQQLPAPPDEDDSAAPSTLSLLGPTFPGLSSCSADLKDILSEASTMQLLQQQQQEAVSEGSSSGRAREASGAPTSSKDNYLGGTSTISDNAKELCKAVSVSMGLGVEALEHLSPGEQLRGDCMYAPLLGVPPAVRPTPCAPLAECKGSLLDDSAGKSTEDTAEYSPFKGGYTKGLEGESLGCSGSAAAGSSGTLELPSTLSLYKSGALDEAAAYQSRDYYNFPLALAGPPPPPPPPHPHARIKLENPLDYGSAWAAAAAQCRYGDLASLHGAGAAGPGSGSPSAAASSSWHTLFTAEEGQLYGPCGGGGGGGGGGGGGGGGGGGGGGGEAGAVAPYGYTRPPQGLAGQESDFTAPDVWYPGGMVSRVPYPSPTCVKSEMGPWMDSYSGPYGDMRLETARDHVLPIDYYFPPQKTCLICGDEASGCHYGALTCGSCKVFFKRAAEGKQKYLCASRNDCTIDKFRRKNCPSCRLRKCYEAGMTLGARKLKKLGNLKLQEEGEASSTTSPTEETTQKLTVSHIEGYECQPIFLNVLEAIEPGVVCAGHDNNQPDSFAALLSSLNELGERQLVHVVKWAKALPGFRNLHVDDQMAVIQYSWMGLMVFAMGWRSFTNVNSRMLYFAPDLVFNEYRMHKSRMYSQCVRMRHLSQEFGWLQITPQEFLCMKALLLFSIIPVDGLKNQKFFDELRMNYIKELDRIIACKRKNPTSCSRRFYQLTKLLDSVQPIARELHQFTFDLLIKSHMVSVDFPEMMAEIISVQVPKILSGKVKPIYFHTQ
The series is described as follows: Antagonist activity at androgen receptor LBD expressed in human HUH7 cells coexpressing GAL4 by luciferase reporter gene assay. The series is classed as functional, cell-based, Huh-7. In general terms: In a reporter assay the amount or activity of a reporter protein is the signal.

The next series deals with Cytochrome P450 3A4 (Homo sapiens, UniProt P08684). The series is described as follows: Inhibition of CYP3A4. The series is classed as ADME.
For series [3], the system named is Liver microsomes. The series is described as follows: Metabolic stability in human liver microsomes assessed as compound remaining. The series is classed as ADME, Microsome.
The target of a further series is Cytochrome P450 2C9 (Homo sapiens, UniProt P11712). The series is described as follows: Inhibition of CYP2C9. The class given is ADME.
The next series concerns the target Cytochrome P450 2D6 (Homo sapiens, UniProt P10635). The series is described as follows: Inhibition of CYP2D6. The series is classed as ADME.
For another series, the target named is T3, Glucocorticoid receptor (Homo sapiens, UniProt P04150).
T3 sequence (P04150 whole entry): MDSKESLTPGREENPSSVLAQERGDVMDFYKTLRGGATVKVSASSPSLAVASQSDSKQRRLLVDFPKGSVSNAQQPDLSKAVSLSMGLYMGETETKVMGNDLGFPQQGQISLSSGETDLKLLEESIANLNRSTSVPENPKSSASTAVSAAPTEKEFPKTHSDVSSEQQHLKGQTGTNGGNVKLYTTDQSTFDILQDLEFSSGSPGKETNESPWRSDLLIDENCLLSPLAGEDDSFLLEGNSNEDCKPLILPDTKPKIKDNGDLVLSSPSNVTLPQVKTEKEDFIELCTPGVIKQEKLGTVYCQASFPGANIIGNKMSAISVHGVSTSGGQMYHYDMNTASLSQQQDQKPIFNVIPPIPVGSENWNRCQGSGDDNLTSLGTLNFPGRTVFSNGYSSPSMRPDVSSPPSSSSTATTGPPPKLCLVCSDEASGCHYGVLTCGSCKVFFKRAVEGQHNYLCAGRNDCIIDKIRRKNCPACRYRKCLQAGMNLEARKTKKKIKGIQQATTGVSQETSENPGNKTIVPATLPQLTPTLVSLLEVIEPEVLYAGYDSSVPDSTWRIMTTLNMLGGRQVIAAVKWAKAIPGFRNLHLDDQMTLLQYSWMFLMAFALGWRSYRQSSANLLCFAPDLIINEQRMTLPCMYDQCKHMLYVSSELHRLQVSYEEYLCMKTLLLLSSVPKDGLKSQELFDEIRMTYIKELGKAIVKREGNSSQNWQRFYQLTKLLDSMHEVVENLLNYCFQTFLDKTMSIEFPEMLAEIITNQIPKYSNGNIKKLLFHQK
The series is described as follows: Antagonist activity at glucocorticoid receptor LBD expressed in human HUH7 cells coexpressing GAL4 by luciferase reporter gene assay. The series is classed as functional, cell-based, Huh-7.

Another series deals with T4, Progesterone receptor (Homo sapiens, UniProt P06401).
T4 sequence (P06401 whole entry): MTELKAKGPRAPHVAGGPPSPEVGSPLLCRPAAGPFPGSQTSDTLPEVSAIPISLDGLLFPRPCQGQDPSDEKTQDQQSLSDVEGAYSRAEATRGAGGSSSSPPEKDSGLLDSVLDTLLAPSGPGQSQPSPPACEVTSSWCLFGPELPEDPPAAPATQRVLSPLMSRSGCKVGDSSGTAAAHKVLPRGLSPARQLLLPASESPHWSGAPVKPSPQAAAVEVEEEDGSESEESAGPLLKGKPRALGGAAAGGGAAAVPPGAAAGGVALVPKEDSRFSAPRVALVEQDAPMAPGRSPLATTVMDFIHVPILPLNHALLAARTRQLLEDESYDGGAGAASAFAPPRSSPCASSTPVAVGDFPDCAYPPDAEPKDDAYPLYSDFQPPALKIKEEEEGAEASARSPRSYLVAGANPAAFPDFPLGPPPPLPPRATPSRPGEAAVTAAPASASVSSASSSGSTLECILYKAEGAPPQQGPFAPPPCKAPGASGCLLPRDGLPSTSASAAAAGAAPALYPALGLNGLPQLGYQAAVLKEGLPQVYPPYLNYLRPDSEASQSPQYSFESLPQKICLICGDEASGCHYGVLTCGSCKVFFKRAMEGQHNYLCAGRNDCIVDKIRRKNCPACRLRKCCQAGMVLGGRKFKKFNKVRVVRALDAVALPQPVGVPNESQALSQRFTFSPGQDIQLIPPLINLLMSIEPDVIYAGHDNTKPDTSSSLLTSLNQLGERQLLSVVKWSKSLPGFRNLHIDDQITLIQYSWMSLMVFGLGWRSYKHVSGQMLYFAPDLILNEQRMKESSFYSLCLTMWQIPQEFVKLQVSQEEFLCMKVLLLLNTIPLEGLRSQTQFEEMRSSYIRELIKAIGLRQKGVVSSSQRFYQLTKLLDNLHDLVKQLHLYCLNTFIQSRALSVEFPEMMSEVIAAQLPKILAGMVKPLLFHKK
The series is described as follows: Antagonist activity at progesterone receptor LBD expressed in human HUH7 cells coexpressing GAL4 by luciferase reporter gene assay. The series is classed as functional, cell-based, Huh-7.

Series [4] can be described thus: Solubility of the compound. The class given is physicochemical.
The nature of series [5]: Intrinsic clearance in rat liver microsomes. The class given is ADME, Microsome.
The test system of series [6] is Rattus norvegicus. The series is described as follows: Antihypertensive activity in Dahl salt-sensitive rat model assessed as decrease of systolic blood pressure at 60 mg/kg, po bid for 21 days. The series is classed as functional, organism-based. Set-up: dose 60 mg/kg. The settings on record: Artery.
Series [7] deals with Rattus norvegicus. The series is described as follows: Antihypertensive activity in Dahl salt-sensitive rat model assessed as decrease of systolic blood pressure at 100 mg/kg administered with chow diet for 21 days. The series is classed as functional, organism-based. Details: dose 100 mg/kg. The settings on record: Artery.
In series [8] the test system is Rattus norvegicus. The series is described as follows: Protection of renal injury in Dahl salt-sensitive rat model assessed as reduction of urinal albumin excretion at 60 mg/kg, po bid for 21 days. Details: dose 60 mg/kg. The class given is functional, organism-based.

Data on six compounds can be found in ChEMBL document CHEMBL1212896, “Discovery of novel cyanodihydropyridines as potent mineralocorticoid receptor antagonists” (J Med Chem, 2010).

What is called IC50 is the concentration that inhibits the measured activity by half. A higher IC50 goes with weaker potency in that assay. Usually solubility stands for how much of the substance goes into solution per volume. Higher therefore signals a readily soluble substance. The CLint scaled is the capacity of the preparation to metabolise the compound, expressed as a volume cleared per time. A low value points to slow turnover.

≈ marks a conversion by molar mass, not a printed value. Calls of active or inactive are those of the source. The calls are words filed in the database; no cut-off is given here. Where only a bound is given, the exact number is not on record here.

Sequence of Cytochrome P450 3A4 (P08684 whole entry): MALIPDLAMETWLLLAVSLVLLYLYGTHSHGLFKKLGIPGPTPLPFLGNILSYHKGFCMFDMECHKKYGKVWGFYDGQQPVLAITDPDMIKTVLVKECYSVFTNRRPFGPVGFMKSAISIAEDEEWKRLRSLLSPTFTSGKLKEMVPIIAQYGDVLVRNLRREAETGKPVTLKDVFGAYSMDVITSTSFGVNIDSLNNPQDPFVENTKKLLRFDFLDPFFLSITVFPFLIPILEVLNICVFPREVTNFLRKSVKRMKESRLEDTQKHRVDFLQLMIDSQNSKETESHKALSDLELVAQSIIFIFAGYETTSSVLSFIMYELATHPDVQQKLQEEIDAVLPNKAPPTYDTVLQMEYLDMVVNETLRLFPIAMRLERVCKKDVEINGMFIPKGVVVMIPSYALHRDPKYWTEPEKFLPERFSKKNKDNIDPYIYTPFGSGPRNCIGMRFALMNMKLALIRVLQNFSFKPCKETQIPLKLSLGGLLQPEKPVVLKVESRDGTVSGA
Sequence of Cytochrome P450 2D6 (P10635 whole entry): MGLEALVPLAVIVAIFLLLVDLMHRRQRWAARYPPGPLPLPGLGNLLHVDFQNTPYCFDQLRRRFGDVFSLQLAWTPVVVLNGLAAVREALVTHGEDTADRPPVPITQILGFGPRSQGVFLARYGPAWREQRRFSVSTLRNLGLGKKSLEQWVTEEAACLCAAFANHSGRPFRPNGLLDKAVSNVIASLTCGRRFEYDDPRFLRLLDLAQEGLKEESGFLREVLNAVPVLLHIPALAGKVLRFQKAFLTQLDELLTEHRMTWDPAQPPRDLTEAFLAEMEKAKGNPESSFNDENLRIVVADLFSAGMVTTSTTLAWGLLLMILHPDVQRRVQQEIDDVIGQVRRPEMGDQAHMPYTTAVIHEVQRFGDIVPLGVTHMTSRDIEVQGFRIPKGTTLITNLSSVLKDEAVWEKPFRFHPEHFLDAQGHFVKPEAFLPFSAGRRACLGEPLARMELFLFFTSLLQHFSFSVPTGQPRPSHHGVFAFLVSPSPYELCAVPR
Sequence of Cytochrome P450 2C9 (P11712 whole entry): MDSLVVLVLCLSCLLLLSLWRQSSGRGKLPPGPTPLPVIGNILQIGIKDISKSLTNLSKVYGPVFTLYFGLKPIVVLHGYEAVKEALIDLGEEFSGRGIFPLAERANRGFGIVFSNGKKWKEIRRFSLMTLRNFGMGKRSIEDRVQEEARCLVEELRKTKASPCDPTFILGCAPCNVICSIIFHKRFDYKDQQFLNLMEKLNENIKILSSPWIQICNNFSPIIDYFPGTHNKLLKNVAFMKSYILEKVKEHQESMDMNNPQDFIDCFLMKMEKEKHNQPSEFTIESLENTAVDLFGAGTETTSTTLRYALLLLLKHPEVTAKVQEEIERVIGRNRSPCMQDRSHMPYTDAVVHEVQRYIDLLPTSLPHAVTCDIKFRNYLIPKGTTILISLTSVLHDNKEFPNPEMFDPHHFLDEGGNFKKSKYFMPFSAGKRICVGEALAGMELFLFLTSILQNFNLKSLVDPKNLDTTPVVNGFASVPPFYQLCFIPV

`COC(=O)C1=C(C(F)(F)F)NC(C)=C(C#N)C1c1ccc(F)cc1Cl` (centres undefined): the values for the Stability in the series with Liver microsomes [1] and in the series with Liver microsomes [3] were 6% and 0%, respectively. The half-maximal inhibitory concentration (IC50) in series [2] is 52 nM; against Androgen receptor it was 800 nM; on Glucocorticoid receptor, 3700 nM; against Progesterone receptor, 7800 nM. The “inhibition (INH)” value at Cytochrome P450 3A4 is given as 30%; on Cytochrome P450 2C9 it was 72%; at Cytochrome P450 2D6 it was 6.8%.
In the case of `CCCC1=C(C(=O)OC)C(c2ccc(F)cc2Cl)C(C#N)=C(C)N1` (centres undefined), the Stability in the series with Liver microsomes [1] and with Liver microsomes [3] was 4% each time. The concentration for half-maximal inhibition (IC50) in series [2] is 16 nM; on Androgen receptor it was 100 nM; against Glucocorticoid receptor it was 700 nM; on Progesterone receptor, more than 10000 nM. Further, the concentration in solution in [4] (solubility) was 5 µM (≈ 1.74 µg/mL).
Take `CCCCC1=C(C(=O)OC)C(c2ccccc2Cl)C(C#N)=C(C)N1` (centres undefined): the Stability with Liver microsomes [1] is listed as 3%; in the series on Liver microsomes [3], 11%. Further, the IC50 was found to be 58 nM in series [2], 900 nM at Androgen receptor, 1600 nM against Glucocorticoid receptor and 300 nM on Progesterone receptor. Further, the solubility in series [4] is less than 5 µM.
The compound `COC(=O)C1=C(Cn2cnnn2)NC(C)=C(C#N)[C@H]1c1ccc(F)cc1Cl` had a CLint scaled in [5] of 8.71 mL/min/kg. The half-inhibitory concentration (IC50) in [2] was 52 nM; at Androgen receptor, 300 nM; against Cytochrome P450 3A4 it was more than 10000 nM; against Cytochrome P450 2C9, more than 10000 nM; against Cytochrome P450 2D6, more than 10000 nM; against Glucocorticoid receptor it was 1000 nM. The compound further returned a 50% inhibitory concentration (IC50) against Progesterone receptor of 7200 nM. Further, in series [4], the concentration in solution (solubility) came to 32 µM (≈ 12.4 µg/mL).
As for `COC(=O)C1=C(Cn2cccn2)NC(C)=C(C#N)C1c1ccc(F)cc1Cl` (centres undefined), the Stability in the series on Liver microsomes [1] worked out at 31%; with Liver microsomes [3], 2%. Besides, the IC50 is 54 nM in series [2]; 1100 nM against Cytochrome P450 3A4; 600 nM against Cytochrome P450 2C9; more than 10000 nM against Cytochrome P450 2D6; 3300 nM against Glucocorticoid receptor; 5500 nM against Progesterone receptor. The same compound registered a solubility in [4] of more than 5 µM.
With `COC(=O)[C@@H]1CC2=CC(=O)CC[C@]2(C)[C@@]23O[C@@H]2C[C@@]2(C)[C@@H](CC[C@@]24CCC(=O)O4)[C@H]13`, the outcome with Rattus norvegicus [6], with Rattus norvegicus [7] and in the series with Rattus norvegicus [8] was Active.
